Test results published in the supplement of paper PMC10307832.

Legend:
Experiment in all cases: relative viability (nuclei count vs DMSO), 5 days (fraction); higher = more cells survive
[1] = compound: COc1cc2nc(N3CCCN(C)CC3)nc(NC3CCN(Cc4ccccc4)CC3)c2cc1OC + CC(=O)c1c(C)c2cnc(Nc3ccc(N4CCNCC4)cn3)nc2n(C2CCCC2)c1=O [Palbociclib] (partner 0.5 µM)
How it was run: (§1)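 Relative viability was taken as the ratio of nuclei in treated wells to nuclei in vehicle wells. Lung cancer cell lines in 1536-well plates received compounds by pin tool one day after seeding, either one drug alone or a fixed anchor-drug dose plus five library-drug doses (not always all listed) in √10 steps. Nuclei were counted on 4× images after 5 days of treatment, and values are medians of duplicate plates.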

[2] = compound: COc1cc2nc(N3CCCN(C)CC3)nc(NC3CCN(Cc4ccccc4)CC3)c2cc1OC + Nc1nc2[nH]cc(CCc3ccc(C(=O)N[C@@H](CCC(=O)O)C(=O)O)cc3)c2c(=O)[nH]1 [Pemetrexed] (partner 0.2 µM)
How it was run: as §1

AZD6482 + Decitabine = compound: Cc1cc([C@@H](C)Nc2ccccc2C(=O)O)c2nc(N3CCOCC3)cc(=O)n2c1 [AZD6482] + Nc1ncn([C@H]2C[C@H](O)[C@@H](CO)O2)c(=O)n1 [Decitabine] (partner 2 µM)
How it was run: as §1

AZD6482 + Alpelisib = compound: Cc1cc([C@@H](C)Nc2ccccc2C(=O)O)c2nc(N3CCOCC3)cc(=O)n2c1 [AZD6482] + Cc1nc(NC(=O)N2CCC[C@H]2C(N)=O)sc1-c1ccnc(C(C)(C)C(F)(F)F)c1 [Alpelisib] (partner 2 µM)
How it was run: as §1

Row | Cell Line | relative viability ([1]; first compound 0.2 µM) | relative viability ([1]; first compound 0.6325 µM) | relative viability ([1]; first compound 2 µM) | relative viability ([1]; first compound 6.325 µM) | relative viability ([2]; first compound 0.2 µM) | relative viability ([2]; first compound 0.6325 µM) | relative viability ([2]; first compound 2 µM) | relative viability ([2]; first compound 6.325 µM) | relative viability (AZD6482 + Decitabine; first compound 0.08 µM) | relative viability (AZD6482 + Decitabine; first compound 0.253 µM) | relative viability (AZD6482 + Decitabine; first compound 0.8 µM) | relative viability (AZD6482 + Decitabine; first compound 2.53 µM) | relative viability (AZD6482 + Decitabine; first compound 8 µM) | relative viability (AZD6482 + Alpelisib; first compound 0.08 µM) | relative viability (AZD6482 + Alpelisib; first compound 0.253 µM) | relative viability (AZD6482 + Alpelisib; first compound 0.8 µM) | relative viability (AZD6482 + Alpelisib; first compound 2.53 µM) | relative viability (AZD6482 + Alpelisib; first compound 8 µM)
1 | HCC-78 | 0.491 | 0.448 | 0.508 | 0.463 | 0.912 | 0.899 | 0.918 | 1.01 | 0.555 | 0.462 | 0.646 | 0.474 | 0.442 | 0.222 | 0.179 | 0.212 | 0.159 | 0.194
2 | IA-LM | – | – | – | – | – | – | – | – | – | – | – | – | – | 0.638 | 0.585 | 0.631 | 0.313 | 0.809
3 | NCI-H322M | 0.468 | 0.531 | 0.435 | 0.481 | 0.606 | 0.623 | 0.581 | 0.584 | 0.657 | 0.617 | 0.674 | 0.537 | 0.603 | 0.574 | 0.553 | 0.573 | 0.474 | 0.48
4 | NCI-H3122 | 0.207 | 0.21 | 0.216 | 0.209 | 0.206 | 0.198 | 0.19 | 0.2 | 0.474 | 0.393 | 0.389 | 0.277 | 0.298 | 0.696 | 0.717 | 0.754 | 0.394 | 0.677
5 | COR-L23 | 0.34 | 0.266 | 0.362 | 0.265 | 0.205 | 0.21 | 0.208 | 0.199 | 0.418 | 0.386 | 0.456 | 0.396 | 0.366 | 0.461 | 0.737 | 0.854 | 0.494 | 0.76
6 | NCI-H2087 | 0.233 | 0.201 | 0.219 | 0.215 | 0.663 | 0.622 | 0.686 | 0.656 | 0.245 | 0.232 | 0.266 | 0.208 | 0.215 | 0.953 | 1.06 | 1.17 | 0.819 | 0.972
7 | LC-2-ad | 0.509 | 0.533 | 0.444 | 0.52 | 0.301 | 0.27 | 0.268 | 0.264 | 0.799 | 0.71 | 0.811 | 0.661 | 0.635 | 0.704 | 0.597 | 0.668 | 0.467 | 0.507
8 | NCI-H1915 | 0.527 | 0.504 | 0.607 | 0.461 | 0.48 | 0.442 | 0.503 | 0.463 | 0.278 | 0.255 | 0.263 | 0.247 | 0.23 | 1.04 | 1.02 | 1.1 | 0.958 | 1.05
9 | NCI-H1793 | 0.32 | 0.312 | 0.316 | 0.292 | 0.919 | 1.19 | 0.945 | 0.797 | 0.419 | 0.429 | 0.313 | 0.297 | 0.271 | 0.537 | 0.519 | 0.48 | – | 0.406
10 | NCI-H2023 | 0.379 | 0.337 | 0.4 | 0.0878 | 0.161 | 0.254 | 0.248 | 0.144 | 0.226 | 0.185 | 0.214 | 0.269 | 0.179 | 0.389 | 0.427 | 0.449 | 0.267 | 0.32
11 | COR-L 105 | 0.375 | 0.398 | 0.364 | 0.396 | 1.08 | 1.22 | 1.15 | 0.798 | 0.67 | 0.68 | 0.628 | 0.601 | 0.559 | 0.771 | 0.837 | 0.784 | 0.517 | 0.728
12 | ChaGo-K-1 | 0.883 | 0.979 | 0.933 | 0.902 | 0.255 | 0.256 | 0.262 | 0.264 | 0.502 | 0.494 | 0.489 | 0.481 | 0.534 | – | – | – | – | –
13 | NCI-H2342 | 0.521 | 0.58 | 0.549 | 0.527 | 0.81 | 0.742 | 0.741 | 0.761 | 0.636 | 0.643 | 0.736 | 0.568 | 0.587 | – | – | – | – | –
14 | NCI-H1299 | – | – | – | – | – | – | – | – | – | – | – | – | – | 1.14 | 1.17 | 1.27 | 1.04 | 1.28
15 | NCI-H1650 | 0.243 | 0.448 | 0.328 | 0.287 | 0.389 | 0.407 | 0.441 | 0.313 | 0.381 | 0.571 | 0.544 | 0.584 | 0.474 | – | – | – | – | –
16 | SW 900 | 0.538 | 0.442 | 0.566 | 0.46 | 0.484 | 0.504 | 0.491 | 0.505 | 0.412 | 0.419 | 0.45 | 0.418 | 0.434 | – | – | – | – | –
17 | NCI-H596 | – | – | – | – | 0.515 | 0.534 | 0.503 | 0.468 | 0.865 | 0.937 | 0.972 | 1.01 | 0.946 | 0.449 | 0.437 | 0.445 | 0.44 | 0.388
18 | NCI-H727 | 0.617 | 0.656 | 0.571 | 0.632 | – | – | – | – | 0.951 | 0.85 | 1.02 | – | 0.798 | 0.398 | 0.535 | 0.46 | – | 0.493
19 | NCI-H1648 | – | 0.293 | – | 0.272 | – | 0.904 | – | 0.791 | 0.502 | 0.453 | 0.472 | – | 0.48 | – | – | – | – | –
20 | NCI-H522 | 0.716 | 1.18 | 0.859 | 0.915 | 1.05 | 0.924 | 1.09 | 0.78 | 0.627 | 0.6 | 0.586 | 0.585 | 0.755 | – | – | – | – | –
21 | A549 | – | – | – | – | – | – | – | – | 0.27 | 0.12 | 0.209 | – | 0.347 | 0.585 | 0.552 | 0.43 | 0.275 | 0.361
22 | NCI-H1563 | – | – | – | – | 0.646 | 0.9 | 0.879 | 0.896 | – | – | – | – | – | 0.753 | 0.703 | 0.672 | 0.661 | 0.688
23 | ABC-1 | 0.718 | 0.682 | 0.754 | 0.6 | – | – | – | – | 0.902 | 1.14 | 0.985 | 1.26 | 0.947 | 0.741 | 0.819 | 1.05 | 0.702 | 0.826
